Laboratory results as given in patent US9999616B2 (ZENITH EPIGENETICS LTD., priority 2013, dated 2018).

Legend:
Human AML MV-4-11 cells = test: Inhibition of cell proliferation in MV4-11 cells (CellTiter Aqueous One); type: cell-based; details: MV4-11, 72 h
Outline: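 MV4-11 cells, 5×10^4 per well in IMDM with 10% FBS, were exposed to increasing compound concentrations or 0.1% DMSO for 72 h at 37 °C in triplicate. Viability was read by MTS (CellTiter Aqueous One) absorbance at 490 nm after 3-4 h. IC50 was derived from background-corrected signal relative to DMSO.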

[1] = target: T1, Brd4 bromodomain 1 (BRD4(1)) (Homo sapiens, UniProt O60885); test: Inhibition of tetra-acetylated histone H4 binding to Brd4 bromodomain 1, measured by FRET (HTRF); design: to Brd4 bromodomain 1 (BRD4(1) as Measured by FRET); made in house; host or cells: E. coli BL21(DE3); details: 2 h at room temperature
Protocol: Proteins were cloned and overexpressed with a N-terminal 6×His tag, then purified by nickel affinity followed by size exclusion chromatography. Briefly, E. coli BL21(DE3) cells were transformed with a recombinant expression vector encoding N-terminally Nickel affinity tagged bromodomains from Brd2, Brd3, Brd4. Cell cultures were incubated at 37° C. with shaking to the appropriate density and induced overnight with IPTG. The supernatant of lysed cells was loaded onto Ni-IDA column for purification. Eluted protein was pooled, concentrated and further purified by size exclusion chromatography. Fractions representing monomeric protein were pooled, concentrated, aliquoted, and frozen at −80° C. for use in subsequent experiments.
Binding of tetra-acetylated histone H4 and BET bromodomains was confirmed by a Homogenous Time Resolved Fluorescence Resonance Energy Transfer (HTRF®) method. […] After a 2 h incubation at room temperature, fluorescence was measured at 665 and 620 nm with a SynergyH4 plate reader (Biotek). The binding inhibitory activity was shown by a decrease in 665 nm relative to 620 nm fluorescence. IC50 values were determined from a dose response curve.

hIL-6 mRNA = test: Inhibition of hIL-6 mRNA transcription in LPS-stimulated U937 macrophages; type: cell-based, Human; details: Homo sapiens, U-937, PMA-differentiated U937 cells, 1 h pretreatment, LPS 3 h, read-out: IL-6 activity
Outline: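 PMA-differentiated U937 macrophages (60 ng/mL PMA, 3 days) pretreated 1 h with compound in 0.1% DMSO, then stimulated with 1 ug/mL E. coli LPS for 3 h at 37° C. IL-6 mRNA quantified by one-step TaqMan qRT-PCR, normalized to cyclophilin; fold expression relative to control, triplicate wells.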

[2] = system: c-myc in Human AML MV4-11 cells; test: Inhibition of cMYC expression (mRNA, real-time PCR) in MV4-11 cells; type: cell-based; details: 3 h treatment, cMYC mRNA by real-time PCR
Outline: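 MV4-11 cells in IMDM with 10% FBS were treated with increasing compound concentrations (DMSO 0.1%) for 3 h at 37 °C, in triplicate. Isolated mRNA was quantified by one-step TaqMan RT-qPCR, cMYC Ct normalized to cyclophilin, and fold expression given relative to DMSO control.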

hIL-17 mRNA = test: Inhibition of hIL-17 mRNA transcription in OKT3-stimulated peripheral blood mononuclear cells; type: cell-based; details: human PBMC, OKT3 stimulation 6 h, read-out: IL-17 Activity
Protocol: Human peripheral blood mononuclear cells were plated (2.0×10^5 cells per well) in a 96-well plate in 45 μL OpTimizer T Cell expansion media (Life Technologies) containing 20 ng/ml IL-2 and penicillin/streptomycin. The cells were treated with increasing concentrations of the test compound or DMSO (0.1%), and incubated at 37° C., 5% CO2 for 1 h before addition of 10× stock OKT3 antibody at 10 ug/ml in media. Triplicate wells were used for each concentration. Cells were incubated at 37° C., 5% CO2 for 6 h before the cells were harvested. At time of harvest, cells were pelleted by centrifugation at 800 rpm for 5 min. Cells were harvested using the mRNA Catcher PLUS kit according to manufacturer's instructions. The eluted mRNA was then used in a one-step quantitative real-time PCR reaction, using components of the RNA UltraSense™ One-Step Kit (Life Technologies) together with Applied Biosystems TaqMan® primer-probes for hIL-17 and Cyclophilin. Real-time PCR plates were run on a ViiA™7 real time PCR machine (Applied Biosystems), data was analyzed, normalizing the Ct values for hIL-17 to an internal control, prior to determining the fold induction of each unknown sample, relative to the control.

MV4-11 cells = test: In vivo efficacy in athymic nude mouse acute myeloid leukemia xenograft model using MV4-11 cells; details: athymic nude mouse AML xenograft (MV4-11), oral dosing
Protocol: MV4-11 cells (ATCC) were grown under standard cell culture conditions and (NCr) nu/nu fisol strain of female mice age 6-7 weeks were injected with 5×10^6 cells/animal in 100 μL PBS+100 μL Matrigel in the lower left abdominal flank. By approximately day 18-21 after MV4-11 cells injection, mice were randomized based on tumor volume (L×W×H)/2) of average ˜100-300 mm^3. Mice were dosed orally with compound at 5 to 120 mg/kg b.i.d and/or q.d. on a continuous dosing schedule and at 2.5 to 85 mg/kg q.d. on a 5 day on 2 day off, 100 mg/kg q.d. on a 4 day on and 3 day off, 135 mg/kg q.d. on a 3 day on and 4 day off, 180 mg/kg on a 2 day on and 5 day off and 240 mg/kg on a 1 day on and 6 days off dosing schedules in EA006 formulation at 10 mL/kg body weight dose volume. Tumor measurements were taken with electronic micro calipers and body weights measured on alternate days beginning from dosing period. The average tumor volumes, percent Tumor Growth Inhibition (TGI) and % change in body weights were compared relative to Vehicle control animals. The means, statistical analysis and the comparison between groups were calculated using Student's t-test in Excel.

[3] = target: T1, Brd4 bromodomain 1 (BRD4(1)); test: Inhibition of tetra-acetylated histone H4 binding to Brd4 bromodomain 1, measured by FRET (HTRF); design: made in house; host or cells: E. coli BL21(DE3); details: 2 h at room temperature
Outline: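 N-terminally His-tagged bromodomain (200 nM), expressed in E. coli and purified by Ni affinity and size exclusion, was incubated with biotinylated tetra-acetylated H4 peptide (25-50 nM), Eu-cryptate streptavidin and XL665 anti-His in HEPES pH 7.4 buffer with 0.2% DMSO. Reactions ran 2 h at room temperature. IC50 came from the 665/620 nm fluorescence decrease.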

| IC50 (Human AML MV-4-11 cells) [nM] | IC50 [1] [nM] | IC50 (hIL-6 mRNA) [nM] | IC50 [2] [nM] | IC50 (hIL-17 mRNA) [nM] | IC50 [3] [nM] | Structure (SMILES) | In vivo activity (MV4-11 cells) |
| --- | --- | --- | --- | --- | --- | --- | --- |
| 300 to 3000 | ≤ 300 | 300 to 3000 | 300 to 3000 | – | – | Cc1ncccc1-c1cc(-c2c(C)noc2C)cc2cn[nH]c12 [Example Compound 70] | – |
| 300 to 3000 | – | ≤ 300 | 300 to 3000 | ≤ 300 | ≤ 300 | Cc1noc(C)c1-c1cc(-c2c(C)nn(C)c2C)c2nc[nH]c2c1 [Example Compound 9, 3,5-dimethyl-4-(4-(1,3,5-trimethyl-1H-pyrazol-4-yl)-1H-benzo[d]imidazol-6-yl)isoxazole] | Active |
| 300 to 3000 | – | ≤ 300 | 300 to 3000 | ≤ 300 | ≤ 300 | Cc1ncccc1-c1cc(-c2c(C)noc2C)cc2[nH]cnc12 [Example Compound 27, 3,5-dimethyl-4-(4-(2-methylpyridin-3-yl)-1H-benzo[d]imidazol-6-yl)isoxazole] | Active |
